Measured values from patent US20260157964A1, “LIPOPHILIC STATIN COMPOSITION WITH IMPROVED SOLUBILITY AND PERMEABILITY AND USES THEREOF” (KOREA INSTITUTE OF SCIENCE AND TECHNOLOGY, priority 2021, published 2026).
Converted amounts (≈) assume the structure as drawn.

What was measured:
[1] = test system: CT26 cells; assay: In vitro cytotoxicity in CT26 cells (CCK-8); assay type: cell-based, mouse
Method: Specifically, 5×10^3 CT26 cells were inoculated on 100 μL of DMEM and a Roswell Park Memorial Institute (RPMI) medium, respectively supplemented with 10% (v/v) FBS and 1% penicillin/streptomycin. […] DL and CD were also treated in the same volume and each of the concentrations. After 24 hours of the culturing, 10 μL of a WST-8 solution [2-2-methoxy-4-nitrophenyl)-3-(4-nitrophenyl)-5-(2,4-disulfophenyl)-2H-tetrazolium monosodium salt] was diluted with 100 μL of each medium, followed by culturing for 2 hours. Then, absorbance was measured using a microplate reader (PerkinElmer multimode plate reader) at 450 nm. Percentages of viable cells are shown by comparing the number of treated cells with that of untreated cells.

[2] = Pharmacokinetics of OP (platinum) in rats, repeated oral dosing; assay type: in vivo, SD rats
Method: After SD rats were orally administered with various concentrations of ODSF repeatedly, the rats were divided into 5 groups (4 rats per group) to evaluate pharmacokinetic properties of OP. The rats were orally administered with a daily dose of 400 μL of OP (10) (OP dispersed in water, 10 mg/kg) or ODSF (2.5), ODSF (10), and ODSF (20) (containing 2.5 mg/kg, 10 mg/kg, and 20 mg/kg OP, respectively), for 14 days. […] Plasma concentrations of OP were measured based on the platinum concentration, after decomposition with nitric acid at 100° C., by inductively coupled plasma-mass spectroscopy (ICP-MS) at a high frequency power of 1450 W, at a coolant flow rate of 12 L/min, at an axillary flow rate of 2.3 L/min, and at a nebulizer flow rate of 0.89 L/min.
Plasma profiles of not only OP in water (10 mg/kg) [OP (10)] but also ODSF including 2.5 mg/kg, 10 mg/kg, and 20 mg/kg OP [ODSF (2.5), ODSF (10), and ODSF (20), respectively] were identified after 2-week continuous metronomic administration in comparison with a single IV bolus dose of 5 mg/kg OP [OP-IV (5)] administered on day 1 and day 14.

[3] = in vivo; details: SD, rat
[4] = oral once a day 14 days, 10 mg/kg OP

`COC(=O)[C@H](CCCCN)NC(=O)CC[C@@H](C)[C@H]1CC[C@H]2[C@@H]3CC[C@@H]4C[C@H](O)CC[C@]4(C)[C@H]3C[C@H](O)[C@]12C` [DL, N^α-deoxycholyl-I-lysyl-methylester] gave a Cell viability ([1]; CT26, carrier amount matching maximum SIMVA concentration of 200 μg/mL) of 77.1%.
For `O=C1[O][Pt]2([NH][C@@H]3CCCC[C@H]3[NH]2)[O]C1=O` [OP, oxaliplatin], the “AUCinf, on day 14” value ([2]; IV, 5 mg/kg OP) was 8120 ± 2470 ng·h/mL, the “AUClast, on day 14” value ([2]; IV, 5 mg/kg OP) was 5460 ± 1460 ng·h/mL and the “Cmax, on day 14” value ([2]; IV, 5 mg/kg OP) was 1060 ± 337 ng/mL. For the same compound, the Bioavailability ([2]; IV, 5 mg/kg OP (reference)) was 100%, the “T1/2, on day 14” value ([2]; IV, 5 mg/kg OP on day 1 and day 14, platinum, n=4) was 15.8 ± 1.32 h and the “AUCinf, on day 14” value [2, 4] was 1500 ± 196 ng·h/mL. The “AUClast, on day 14” value [2, 4] was 775 ± 124 ng·h/mL, the Bioavailability [2, 4] was 7.09 ± 1.14% and the “Cmax, on day 14” value [2, 4] was 53 ± 14 ng/mL. For the same compound, the “T1/2, on day 14” value [2, 4] was 23.7 ± 0.723 h and the “Tmax, on day 14” value [2, 4] was 0.833 ± 0.289 h.
In the case of `CCC(C)(C)C(=O)O[C@H]1C[C@@H](C)C=C2C=C[C@H](C)[C@H](CC[C@@H]3C[C@@H](O)CC(=O)O3)[C@H]21` [SIMVA in DMSO (50), simvastatin], the half-life ([3]; plasma, po, 50 mg/kg) is reported as 1.22 h.
Compound `CCC(C)(C)C(=O)O[C@H]1C[C@@H](C)C=C2C=C[C@H](C)[C@H](CC[C@@H]3C[C@@H](O)CC(=O)O3)[C@H]21` [SIMVA, simvastatin] has a half-life ([3]; in vivo, po, 50 mg/kg) of 1.6 h, a Tmax ([3]; plasma, po, 50 mg/kg) of 1.5 h and an IC50 ([1]; Mus musculus, CT26, 24 h, read-out: IC50 (concentration of a drug required to kill 50% of cells)) of 183 µg/mL (≈ 437 µM).
`CCC(C)(C)C(=O)O[C@H]1C[C@@H](C)C=C2C=C[C@H](C)[C@H](CC[C@@H]3C[C@@H](O)CC(=O)O3)[C@H]21` [SIMVA-IP (10), simvastatin] gave a Tmax ([3]; plasma, ip, 10 mg/kg) of 0.5 h and a half-life ([3]; plasma, ip, 10 mg/kg) of 0.54 h.
In the case of `CCC(C)(C)C(=O)O[C@H]1C[C@@H](C)C=C2C=C[C@H](C)[C@H](CC[C@@H]3C[C@@H](O)CC(=O)O3)[C@H]21` [SIMVA-IV (10), simvastatin], the half-life ([3]; plasma, iv, 10 mg/kg) is reported as 0.39 h.
